Measured values taken from ChEMBL document CHEMBL1201862, “PubChem BioAssay data set” (2004).
Each block holds one compound with its values, some of them ahead of it. Active and inactive are the calls of the source.

Legend:
Escherichia coli = assay: microbe, parasite or virus in culture
[1] = target: T1, Apoptotic protease-activating factor 1 (Homo sapiens, UniProt O14727); assay type: functional
T1 sequence (O14727 whole entry): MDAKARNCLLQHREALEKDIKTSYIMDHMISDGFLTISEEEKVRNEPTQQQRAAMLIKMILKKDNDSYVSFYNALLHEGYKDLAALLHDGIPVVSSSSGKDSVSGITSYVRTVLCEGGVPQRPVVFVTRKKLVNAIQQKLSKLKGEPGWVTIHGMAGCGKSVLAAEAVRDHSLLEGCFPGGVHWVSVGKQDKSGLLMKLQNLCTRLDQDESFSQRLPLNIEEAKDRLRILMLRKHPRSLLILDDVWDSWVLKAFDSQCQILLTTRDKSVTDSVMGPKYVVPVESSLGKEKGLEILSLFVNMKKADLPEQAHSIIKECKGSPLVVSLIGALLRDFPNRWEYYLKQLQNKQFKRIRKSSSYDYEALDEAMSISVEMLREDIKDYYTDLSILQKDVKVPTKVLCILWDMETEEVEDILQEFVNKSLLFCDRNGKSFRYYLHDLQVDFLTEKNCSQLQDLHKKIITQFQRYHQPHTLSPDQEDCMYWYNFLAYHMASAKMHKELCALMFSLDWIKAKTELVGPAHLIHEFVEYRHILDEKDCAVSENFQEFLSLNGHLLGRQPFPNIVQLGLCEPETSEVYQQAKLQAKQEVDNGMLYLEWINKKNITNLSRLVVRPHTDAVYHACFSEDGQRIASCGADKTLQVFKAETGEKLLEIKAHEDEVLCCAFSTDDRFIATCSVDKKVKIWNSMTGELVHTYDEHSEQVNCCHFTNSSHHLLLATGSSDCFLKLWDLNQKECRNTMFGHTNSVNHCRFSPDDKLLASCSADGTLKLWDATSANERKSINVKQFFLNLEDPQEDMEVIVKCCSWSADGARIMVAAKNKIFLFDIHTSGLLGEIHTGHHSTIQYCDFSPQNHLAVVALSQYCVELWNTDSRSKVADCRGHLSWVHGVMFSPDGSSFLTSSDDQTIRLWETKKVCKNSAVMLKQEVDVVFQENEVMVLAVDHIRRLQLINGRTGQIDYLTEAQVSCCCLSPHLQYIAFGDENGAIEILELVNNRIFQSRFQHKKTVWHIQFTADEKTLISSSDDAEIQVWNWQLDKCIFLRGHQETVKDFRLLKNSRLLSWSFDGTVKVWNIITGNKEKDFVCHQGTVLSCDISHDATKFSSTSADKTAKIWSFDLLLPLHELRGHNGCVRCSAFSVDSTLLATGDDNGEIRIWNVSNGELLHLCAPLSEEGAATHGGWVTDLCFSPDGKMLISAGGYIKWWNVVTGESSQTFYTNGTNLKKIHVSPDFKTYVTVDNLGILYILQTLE

[2] = target: T2, Short transient receptor potential channel 4 (Mus musculus, UniProt Q9QUQ5); assay: mouse TRPC4 channel inhibitors, dose response, cell-based, HEK293 TRPC4/mu-opioid, Fluo-4 calcium (AID 434942); assay type: functional;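 further: potency of inhibitors blocking the TRPC4 calcium response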
T2 sequence (Q9QUQ5 whole entry): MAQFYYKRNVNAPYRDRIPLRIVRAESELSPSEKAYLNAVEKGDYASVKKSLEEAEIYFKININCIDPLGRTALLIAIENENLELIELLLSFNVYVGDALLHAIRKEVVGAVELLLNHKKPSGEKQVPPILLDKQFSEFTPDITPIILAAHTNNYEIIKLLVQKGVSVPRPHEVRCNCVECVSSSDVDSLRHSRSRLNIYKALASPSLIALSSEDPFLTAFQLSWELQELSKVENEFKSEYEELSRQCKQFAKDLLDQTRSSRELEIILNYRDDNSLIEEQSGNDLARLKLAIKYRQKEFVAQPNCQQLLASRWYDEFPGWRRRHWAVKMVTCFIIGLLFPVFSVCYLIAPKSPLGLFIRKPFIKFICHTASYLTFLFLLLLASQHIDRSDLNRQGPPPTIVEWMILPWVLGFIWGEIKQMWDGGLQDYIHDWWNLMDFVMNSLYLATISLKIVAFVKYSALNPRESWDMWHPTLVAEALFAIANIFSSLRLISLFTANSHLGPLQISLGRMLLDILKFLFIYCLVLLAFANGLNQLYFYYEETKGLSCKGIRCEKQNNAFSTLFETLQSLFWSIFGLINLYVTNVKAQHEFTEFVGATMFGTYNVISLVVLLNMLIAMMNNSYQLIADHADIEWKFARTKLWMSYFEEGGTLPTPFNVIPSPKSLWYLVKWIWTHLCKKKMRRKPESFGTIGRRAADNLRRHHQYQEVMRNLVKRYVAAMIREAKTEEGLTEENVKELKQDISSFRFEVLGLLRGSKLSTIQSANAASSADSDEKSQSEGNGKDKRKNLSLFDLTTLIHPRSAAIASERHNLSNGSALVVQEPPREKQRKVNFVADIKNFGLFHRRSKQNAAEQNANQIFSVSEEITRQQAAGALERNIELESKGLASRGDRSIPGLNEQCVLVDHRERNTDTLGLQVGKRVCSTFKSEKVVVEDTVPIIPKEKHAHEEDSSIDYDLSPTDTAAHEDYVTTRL

[3] = target: T3, DNA repair and recombination protein RAD54-like (Homo sapiens, UniProt Q92698); assay: inhibitors of human RAD54 branch migration, confirmation, biochemical, fluorescence, cherry-picked samples, dose series (AID 651657); assay type: functional
T3 sequence (Q92698 whole entry): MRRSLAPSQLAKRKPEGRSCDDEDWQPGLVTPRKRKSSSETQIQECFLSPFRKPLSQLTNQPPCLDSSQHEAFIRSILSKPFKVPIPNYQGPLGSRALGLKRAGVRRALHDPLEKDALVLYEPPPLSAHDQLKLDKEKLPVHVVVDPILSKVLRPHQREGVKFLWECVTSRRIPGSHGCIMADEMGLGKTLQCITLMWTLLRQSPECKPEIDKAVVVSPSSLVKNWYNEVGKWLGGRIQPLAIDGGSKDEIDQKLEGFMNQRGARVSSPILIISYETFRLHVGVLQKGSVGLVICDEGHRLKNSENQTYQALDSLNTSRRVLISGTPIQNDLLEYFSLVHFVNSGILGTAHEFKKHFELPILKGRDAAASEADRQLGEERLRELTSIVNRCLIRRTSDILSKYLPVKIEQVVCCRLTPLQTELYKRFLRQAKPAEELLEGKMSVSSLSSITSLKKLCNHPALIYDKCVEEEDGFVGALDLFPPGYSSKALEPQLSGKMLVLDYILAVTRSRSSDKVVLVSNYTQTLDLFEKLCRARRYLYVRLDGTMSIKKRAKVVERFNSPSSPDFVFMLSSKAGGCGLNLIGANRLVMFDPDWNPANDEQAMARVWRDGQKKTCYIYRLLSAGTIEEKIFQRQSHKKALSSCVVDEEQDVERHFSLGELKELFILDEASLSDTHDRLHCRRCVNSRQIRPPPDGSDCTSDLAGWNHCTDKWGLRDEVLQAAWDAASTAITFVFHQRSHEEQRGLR

[4] = target: T4, Heat shock factor protein 1 (Mus musculus, UniProt P38532); assay: HSF1 potentiators in luciferase reporter cells, confirmation, cell-based, NIH3T3, luminescence, dose retest (AID 435004); assay type: functional;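 further: stress induced by proteasome inhibitor MG132 added 30 min after compound; luciferase reporter driven by HSF1 response element in NIH3T3 cells; actives raise luminescence as potentiators of the MG132 stress response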
T4 sequence (P38532 whole entry): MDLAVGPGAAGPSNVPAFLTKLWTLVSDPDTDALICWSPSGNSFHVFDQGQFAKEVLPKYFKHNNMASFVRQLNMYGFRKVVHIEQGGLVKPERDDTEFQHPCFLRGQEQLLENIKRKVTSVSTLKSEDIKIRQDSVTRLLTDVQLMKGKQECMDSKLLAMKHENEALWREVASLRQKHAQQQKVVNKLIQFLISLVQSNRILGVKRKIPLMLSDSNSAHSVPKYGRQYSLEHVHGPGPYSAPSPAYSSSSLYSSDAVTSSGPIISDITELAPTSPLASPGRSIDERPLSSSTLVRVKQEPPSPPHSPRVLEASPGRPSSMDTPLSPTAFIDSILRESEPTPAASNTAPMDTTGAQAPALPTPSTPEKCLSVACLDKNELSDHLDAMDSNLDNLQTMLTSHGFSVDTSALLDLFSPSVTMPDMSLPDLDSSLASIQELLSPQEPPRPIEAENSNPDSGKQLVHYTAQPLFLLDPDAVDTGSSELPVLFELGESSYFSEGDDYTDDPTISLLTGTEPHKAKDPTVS

[5] = target: T5, Corticotropin-releasing factor receptor 2/Corticotropin-releasing factor-binding protein (Homo sapiens, UniProt P24387+Q13324); assay: Dose Response confirmation of uHTS hits for small molecule antagonists of the CRF-binding protein and CRF-R2 receptor complex.; assay type: functional; conditions: read-out: IC50_Mean
T5 sequence (Q13324 whole entry): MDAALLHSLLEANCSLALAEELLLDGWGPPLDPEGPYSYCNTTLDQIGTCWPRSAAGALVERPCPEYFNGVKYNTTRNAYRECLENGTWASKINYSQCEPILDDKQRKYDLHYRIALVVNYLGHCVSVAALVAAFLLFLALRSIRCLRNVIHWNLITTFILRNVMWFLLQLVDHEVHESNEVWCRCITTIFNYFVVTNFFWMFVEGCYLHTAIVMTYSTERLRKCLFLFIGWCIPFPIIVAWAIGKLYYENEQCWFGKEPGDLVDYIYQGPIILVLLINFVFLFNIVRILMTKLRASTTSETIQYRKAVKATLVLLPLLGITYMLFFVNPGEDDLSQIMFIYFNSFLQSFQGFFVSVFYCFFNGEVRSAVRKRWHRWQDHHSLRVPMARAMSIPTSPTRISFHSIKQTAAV
T5 sequence (P24387 whole entry): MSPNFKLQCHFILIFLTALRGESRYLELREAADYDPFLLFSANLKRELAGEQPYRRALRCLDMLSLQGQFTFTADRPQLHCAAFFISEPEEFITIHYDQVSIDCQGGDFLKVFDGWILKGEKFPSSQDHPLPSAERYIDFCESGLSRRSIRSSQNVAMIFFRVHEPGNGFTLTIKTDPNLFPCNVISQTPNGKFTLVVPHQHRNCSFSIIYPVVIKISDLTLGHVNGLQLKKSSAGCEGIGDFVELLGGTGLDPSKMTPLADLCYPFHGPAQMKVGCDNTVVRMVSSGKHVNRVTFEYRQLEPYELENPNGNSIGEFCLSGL

[6] = target: T5, Corticotropin-releasing factor receptor 2/Corticotropin-releasing factor-binding protein; assay: activators of CRF receptor 2 with binding protein – uHTS hits, confirmation (AID 602473); assay type: functional; conditions: read-out: EC50_Mean
[7] = HEK293T cell cytotoxicity, dose response, cytotoxicity control for HIV Vif inhibitor project, cherry-picks (AID 652208); assay type: functional, cell-based

Compound: Clc1ccccc1-c1nn2c(-c3ccncc3)nnc2s1
AC50 (Escherichia coli): 23.3 µM (active) | IC50 [1]: 19.1 µM (active)

EC50 [2]: 2.99 µM (active) | AC50 [3]: 37.2 µM (active)
Compound: Cc1ccc2nc(C)cc(Nc3ccc4c(c3)OCCO4)c2c1

Compound: CC(Cc1ccccc1)NCC(=O)Nc1cc(N(C)C)nc2ccccc12 (stereo not given)
EC50 [4]: > 260 µM (inactive) | AC50 [3]: 42.1 µM (active)

Compound: Cc1ccc(-c2cc(C(=O)NCc3ccccn3)c3ccccc3n2)cc1C
IC50 [5]: > 47.1 µM (inactive) | EC50 [6]: > 53 µM (inactive) | AC50 [7]: 32.7 µM (active)

Compound: O=C(COc1ccc(-n2cnnn2)cc1)Nc1cc(Cl)cc(Cl)c1
AC50 [7]: 18.1 µM (active)
